Article PMC7767178 (International Journal of Molecular Sciences, 2020)

Details: 37 °C

Compound: CC(C)[C@H]1NC(=O)CNC(=O)[C@@H](CC(N)=O)NC(=O)[C@@H](CCCNC(=N)N)NC(=O)[C@@H](Cc2ccc(O)cc2)NC(=O)[C@@H](C(C)C)NC(=O)[C@H](NC(=O)[C@H](NC(=O)[C@@H](CC(N)=O)NC(=O)[C@@H](Cc2c[nH]c3ccccc23)NC(=O)[C@@H](C)NC(=O)[C@@H](Cc2ccccc2)NC(=O)CN)C(C)C)CSSC[C@H](C(=O)N[C@H](Cc2c[nH]cn2)C(=O)N[C@H](CCCNC(=N)N)C(=O)N[C@H](CCCNC(=N)N)C(=O)N[C@H](C)C(=O)N[C@H](CC(N)=O)C(N)=O)NC(=O)[C@@H](C(C)C)NC(=O)[C@@H](CCCNC(=N)N)NC1=O [DN6NH2]
- activity retained in SIF (200 μg/mL peptide, inhibition zone against A. veronii ACCC61732): 100%
- state after incubation in SIF (1 h): remained intact
